According to patent US20020164574A1 (priority 2001, published 2002):
“Also recorded” adds a separate entry of the source.

Columns and labels:
[1] = test system: M. grisea and S. cerevisiae; assay type: cell-based; conditions: OD600; rich liquid media; two fold dilution series; species not given
S. cerevisiae = test: YT MicroPlate carbon utilization test with fungicide treatment; assay type: cell-based; conditions: sub-inhibitory concentration of fungicide; 48 hours incubation; YT MicroPlate (Biolog); FIG. 2
Protocol: The YT microplate test panel (Biolog, Inc.) is designed as a tool for identifying a broad range of yeasts by their carbon utilization patterns. Initial tests were performed with S. cerevisiae in these plates with and without the addition of various fungicides. Very simply, yeast cells are prepared as a water suspension as per the YT microplate instructions. Prior to loading the plates with cells, a fungicide or solvent control is added to the water suspension. The cells are immediately loaded onto a plate. The plates were incubated at 26° C. as per instructions, and OD490 and OD750 readings were obtained at various time points during incubation. The results of fungicide treated samples and controls are compared. Differences in well growth that is altered relative to the control is recorded and is presumed to relate to the mode-of-action of the chemical.
A test in the YT microplate was set up using the sub-inhibitory concentration of three fungicides for which a putative MOA is known. Two fungicides, benomyl and fenpropimorph are predicted to have no effect on carbon utilization, but the third, fenpiclonil, is predicted to affect glucose uptake and utilization. The experiments were performed as described.

SMILES | growth inhibition by spectrophotometric analysis [1] | utilization of carbon sources, fungicide treatment compared to controls (S. cerevisiae)
O=C1CCc2cccc3c2N1CC3 [pyroquilon] | no growth inhibition | –
Cc1cccc2sc3nncn3c12 [tricyclazole] | no growth inhibition | –
CCCCNC(=O)n1c(NC(=O)OC)nc2ccccc21 [benomyl] | – | did not result in any significant differences from the controls
N#Cc1c[nH]cc1-c1cccc(Cl)c1Cl [fenpiclonil] | – | decreased utilization of glucose, raffinose and sucrose; also recorded: significant changes in the utilization of glucose, raffinose, and sucrose
CC(Cc1ccc(C(C)(C)C)cc1)CN1C[C@@H](C)O[C@@H](C)C1 (some centres unmarked) [fenpropimorph] | – | did not result in any significant differences from the controls
